These results are taken from patent US10689354B2, “Aminoazole derivative” (Teijin Pharma Limited, priority 2015, dated 2020).

Experiment [1] deals with T1, androgen receptor (AR-LBD) (Rattus norvegicus, UniProt P15207).
T1 construct: 5 μL of 2×AR-LBD/Fluoromone AL Red Complex contained in the kit; purchased Invitrogen
T1 sequence (P15207 651-882 limits assumed): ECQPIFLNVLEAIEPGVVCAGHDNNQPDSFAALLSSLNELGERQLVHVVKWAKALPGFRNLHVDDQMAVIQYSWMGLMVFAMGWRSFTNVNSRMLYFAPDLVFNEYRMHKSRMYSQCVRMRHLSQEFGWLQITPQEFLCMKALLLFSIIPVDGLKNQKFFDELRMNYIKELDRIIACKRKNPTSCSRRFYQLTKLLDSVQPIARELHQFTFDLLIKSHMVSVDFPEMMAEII
The experiment is described as follows: Evaluation of androgen receptor affinity (PolarScreen Androgen Receptor Competitor Assay Kit, Red; fluorescence polarization). The following applies: 22° C. for 5 hours, relative to binding rate of 1 μM DHT, read-out: AR affinity (pEC50) (converted). The gist of the method:
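Duplicate wells of test compound were mixed with the kit's rat AR-LBD–Fluoromone AL Red tracer complex and left 5 hours at 22 °C before polarization was read. A 4-parameter fit gave pEC50, with binding rate referenced to 1 μM dihydrotestosterone.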

The next experiment addresses T2, human androgen receptor (Homo sapiens, UniProt P10275).
T2 construct: expressed in transfected cells; host or cells: HEK293
T2 sequence (P10275 1-920): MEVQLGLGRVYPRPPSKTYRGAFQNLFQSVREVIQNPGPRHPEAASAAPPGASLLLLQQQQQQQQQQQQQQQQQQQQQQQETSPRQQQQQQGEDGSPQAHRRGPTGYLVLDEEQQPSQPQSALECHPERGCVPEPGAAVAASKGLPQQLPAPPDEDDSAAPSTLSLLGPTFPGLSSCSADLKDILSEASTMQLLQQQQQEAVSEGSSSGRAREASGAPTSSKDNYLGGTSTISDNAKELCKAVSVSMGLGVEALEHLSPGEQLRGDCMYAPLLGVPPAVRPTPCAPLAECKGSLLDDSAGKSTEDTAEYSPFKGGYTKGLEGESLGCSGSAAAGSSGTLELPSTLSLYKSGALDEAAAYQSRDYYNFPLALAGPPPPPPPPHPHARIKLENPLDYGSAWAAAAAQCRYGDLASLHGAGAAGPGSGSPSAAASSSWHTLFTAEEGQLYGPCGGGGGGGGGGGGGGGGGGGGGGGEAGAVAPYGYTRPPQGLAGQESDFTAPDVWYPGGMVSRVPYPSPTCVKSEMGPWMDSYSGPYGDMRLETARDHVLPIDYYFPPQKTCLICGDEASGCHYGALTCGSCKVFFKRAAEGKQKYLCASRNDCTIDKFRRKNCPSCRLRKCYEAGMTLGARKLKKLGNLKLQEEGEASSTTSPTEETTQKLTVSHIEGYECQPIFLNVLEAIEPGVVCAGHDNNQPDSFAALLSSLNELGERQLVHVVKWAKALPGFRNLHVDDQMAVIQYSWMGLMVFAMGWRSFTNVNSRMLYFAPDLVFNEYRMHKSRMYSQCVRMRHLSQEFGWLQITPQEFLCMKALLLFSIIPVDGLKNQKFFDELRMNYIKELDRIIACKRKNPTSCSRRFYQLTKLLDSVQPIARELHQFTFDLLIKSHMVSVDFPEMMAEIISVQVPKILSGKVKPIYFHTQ
The experiment is described as follows: Reporter assay of an androgen receptor responsive sequence (luciferase, transiently transfected HEK293 cells). It is filed as cell-based. The following applies: 24 hours incubation, relative to activity of 100 nM DHT, read-out: AR transcriptive activity (pEC50) (converted). The procedure, abridged: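 Agonism scored as pEC50, fitted by 4-parameter curve against the response to 100 nM DHT, from dual-luciferase readout after 24 h compound treatment. Cells were HEK293 co-transfected (3 h) with human AR expression vector, androgen-responsive firefly reporter and Renilla control, in charcoal-stripped serum.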
In general terms: A reporter such as luciferase makes a cellular process visible.

With `COc1ccc(CCN(c2ccc(C#N)cc2)c2nc(C(=O)NS(C)(=O)=O)c(C)s2)cc1` [Compound 400, 2-[4-cyano-N-[2-(4-methoxyphenyl)ethyl]anilino]-5-methyl-N-methylsulfonyl-thiazole-4-carboxamide], the EC50 in experiment [1] is 631 nM; at human androgen receptor it was more than 10000 nM.

Regarding `Cc1sc(N(CCc2cccc(O)c2)c2ccc(C#N)cc2)nc1C(=O)NS(C)(=O)=O` [Compound 401, 2-[4-cyano-N-[2-(3-hydroxyphenyl)ethyl]anilino]-5-methyl-N-methylsulfonyl-thiazole-4-carboxamide], the EC50 in experiment [1] is 158 nM; at human androgen receptor it was 1580 nM.

Consider `Cc1sc(N(Cc2ccc3ncccc3c2)c2ccc(C#N)cc2)nc1C(=O)NS(C)(=O)=O` [Compound 403, 2-[4-cyano-N-(6-quinolylmethyl)anilino]-5-methyl-N-methylsulfonyl-thiazole-4-carboxamide], for which the EC50 (in experiment [1]; on human androgen receptor) was 251 nM each time.

As to `Cc1sc(N(Cc2ccc3nccnc3c2)c2ccc(C#N)cc2)nc1C(=O)NS(C)(=O)=O` [Compound 404, 2-[4-cyano-N-(quinoxalin-6-ylmethyl)anilino]-5-methyl-N-methylsulfonyl-thiazole-4-carboxamide], the results for the EC50 (in experiment [1]; at human androgen receptor) were 1000 nM and 3160 nM, respectively.

As to `Cc1sc(N(CCC2CCCC2O)c2ccc(C#N)cc2)nc1C(=O)NS(C)(=O)=O` (stereo not shown) [Compound 406, 2-[4-cyano-N-[2-(2-hydroxycyclopentyl)ethyl]anilino]-5-methyl-N-methylsulfonyl-thiazole-4-carboxamide], the figures for the EC50 (in experiment [1]; on human androgen receptor) were 794 nM and 2510 nM, respectively.

On to `Cc1sc(N(CCC2CCCCC2)c2ccc(C#N)cc2)nc1C(=O)NS(C)(=O)=O` [Compound 407, 2-[4-cyano-N-(2-cyclohexylethyl)anilino]-5-methyl-N-methylsulfonyl-thiazole-4-carboxamide], for which the EC50 in experiment [1] is 50.1 nM; at human androgen receptor, 200 nM.

For `Cc1sc(N(Cc2ccc(Cl)cc2Cl)c2ccc(C#N)cc2)nc1C(=O)NS(C)(=O)=O` [Compound 413, 2-[4-cyano-N-[(2,4-dichlorophenyl)methyl]anilino]-5-methyl-N-methylsulfonyl-thiazole-4-carboxamide], the EC50 in experiment [1] is 25.1 nM; at human androgen receptor, 501 nM.

On to `Cc1sc(N(Cc2cc(F)cc(C(F)(F)F)c2)c2ccc(C#N)cc2)nc1C(=O)NS(C)(=O)=O` [Compound 416, 2-[4-cyano-N-[[3-fluoro-5-(trifluoromethyl)phenyl]methyl]anilino]-5-methyl-N-methylsulfonyl-thiazole-4-carboxamide], for which the EC50 in experiment [1] is 25.1 nM; at human androgen receptor it was 158 nM.

Take `Cc1sc(N(Cc2cc(C(F)(F)F)ccc2Cl)c2ccc(C#N)cc2)nc1C(=O)NS(C)(=O)=O` [Compound 417, 2-[N-[[2-chloro-5-(trifluoromethyl)phenyl]methyl]-4-cyano-anilino]-5-methyl-N-methylsulfonyl-thiazole-4-carboxamide]: the EC50 in experiment [1] was 316 nM; at human androgen receptor, more than 10000 nM.

Regarding `COc1c(F)c(CN(c2ccc(C#N)cc2)c2nc(C(=O)NS(C)(=O)=O)c(C)s2)c(F)c(F)c1C(F)(F)F` [Compound 418, 2-[4-cyano-N-[[2,3,6-trifluoro-5-methoxy-4-(trifluoromethyl)phenyl]methyl]anilino]-5-methyl-N-methylsulfonyl-thiazole-4-carboxamide], the EC50 was 50.1 nM in experiment [1] and 158 nM at human androgen receptor.

In the case of `Cc1sc(N(Cc2ccc([S+]([O-])C(F)(F)F)cc2)c2ccc(C#N)cc2)nc1C(=O)NS(C)(=O)=O` (stereo not shown) [Compound 419, 2-[4-cyano-N-[[4-(trifluoromethylsulfinyl)phenyl]methyl]anilino]-5-methyl-N-methylsulfonyl-thiazole-4-carboxamide], the EC50 in experiment [1] was 63.1 nM; at human androgen receptor, 631 nM.

As to `Cc1sc(N(Cc2ccc(OC(F)(F)F)c(F)c2)c2ccc(C#N)cc2)nc1C(=O)NS(C)(=O)=O` [Compound 420, 2-[4-cyano-N-[[3-fluoro-4-(trifluoromethoxy)phenyl]methyl]anilino]-5-methyl-N-methylsulfonyl-thiazole-4-carboxamide], the EC50 in experiment [1] is 20 nM; at human androgen receptor, 158 nM.

As for `Cc1sc(N(Cc2ccc(OC(F)(F)F)c(Cl)c2)c2ccc(C#N)cc2)nc1C(=O)NS(C)(=O)=O` [Compound 421, 2-[N-[[3-chloro-4-(trifluoromethoxy)phenyl]methyl]-4-cyano-anilino]-5-methyl-N-methylsulfonyl-thiazole-4-carboxamide], the EC50 is 20 nM in experiment [1] and 200 nM on human androgen receptor.

With `CSc1cccc(CN(c2ccc(C#N)cc2)c2nc(C(=O)NS(C)(=O)=O)c(C)s2)c1` [Compound 431, 2-[4-cyano-N-[(3-methylsulfanylphenyl)methyl]anilino]-5-methyl-N-methylsulfonyl-thiazole-4-carboxamide], the EC50 in experiment [1] is 20 nM; on human androgen receptor, 316 nM.

With `Cc1sc(N(Cc2cccc3nsnc23)c2ccc(C#N)cc2)nc1C(=O)NS(C)(=O)=O` [Compound 437, 2-[N-(2,1,3-benzothiadiazol-4-ylmethyl)-4-cyano-anilino]-5-methyl-N-methylsulfonyl-thiazole-4-carboxamide], the EC50 in experiment [1] was 50.1 nM; on human androgen receptor it was 126 nM.

On to `Cc1sc(N(CCCC(C)C)c2ccc(C#N)cc2)nc1C(=O)NS(C)(=O)=O` [Compound 438, 2-(4-cyano-N-isohexyl-anilino)-5-methyl-N-methylsulfonyl-thiazole-4-carboxamide], for which the EC50 is 25.1 nM in experiment [1] and 398 nM on human androgen receptor.

As for `CC(C)=CCN(c1ccc(C#N)cc1)c1nc(C(=O)NS(C)(=O)=O)c(C)s1` [Compound 439, 2-[4-cyano-N-(3-methylbut-2-enyl)anilino]-5-methyl-N-methylsulfonyl-thiazole-4-carboxamide], the EC50 in experiment [1] is 50.1 nM; on human androgen receptor, 126 nM.

In the case of `Cc1sc(N(CCC2CCCC(O)C2)c2ccc(C#N)cc2)nc1C(=O)NS(C)(=O)=O` (stereo not shown) [Compound 442, 2-[4-cyano-N-[2-(3-hydroxycyclohexyl)ethyl]anilino]-5-methyl-N-methylsulfonyl-thiazole-4-carboxamide], the results for the EC50 (in experiment [1]; on human androgen receptor) were 316 nM and 1260 nM, respectively.

Consider `Cc1sc(N(CCC2CCCCO2)c2ccc(C#N)cc2)nc1C(=O)NS(C)(=O)=O` (stereo not shown) [Compound 443, 2-[4-cyano-N-(2-tetrahydropyran-2-ylethyl)anilino]-5-methyl-N-methylsulfonyl-thiazole-4-carboxamide], for which the EC50 in experiment [1] is 200 nM; at human androgen receptor it was 501 nM.

Consider `Cc1sc(N(CC2CC3CCC2C3)c2ccc(C#N)cc2)nc1C(=O)NS(C)(=O)=O` (stereo not shown) [Compound 447, 2-[4-cyano-N-(norbornan-2-ylmethyl)anilino]-5-methyl-N-methylsulfonyl-thiazole-4-carboxamide], for which the EC50 in experiment [1] is 50.1 nM; on human androgen receptor it was 2510 nM.

For `Cc1sc(N(Cc2cccc(C(F)F)c2)c2ccc(C#N)cc2)nc1C(=O)NS(C)(=O)=O` [Compound 450, 2-[4-cyano-N-[[3-(difluoromethyl)phenyl]methyl]anilino]-5-methyl-N-methylsulfonyl-thiazole-4-carboxamide], the results for the EC50 (in experiment [1]; at human androgen receptor) were 31.6 nM and 50.1 nM, respectively.

On to `Cc1sc(N(Cc2ccccc2)c2ccc(C#N)c(C(F)(F)F)c2)nc1C(=O)NS(C)(=O)=O` [Compound 451, 2-[N-benzyl-4-cyano-3-(trifluoromethyl)anilino]-5-methyl-N-methylsulfonyl-thiazole-4-carboxamide], for which the values for the EC50 (in experiment [1]; at human androgen receptor) were 25.1 nM and 50.1 nM, respectively.

`CSc1ccccc1CN(c1ccc(C#N)cc1)c1nc(C(=O)NS(C)(=O)=O)c(C)s1` [Compound 452, 2-[4-cyano-N-[(2-methylsulfanylphenyl)methyl]anilino]-5-methyl-N-methylsulfonyl-thiazole-4-carboxamide]: the EC50 in experiment [1] is 50.1 nM; at human androgen receptor, 200 nM.
